According to PubChem BioAssay AID1845204 (Molecular Pharmacology Branch, DTP, NCI, 2023):

Test system: HSSY-II tumor spheroid viability
Test: Anticancer human tumor HSSY-II cell line growth inhibition;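 note: spheroids exposed to compounds for seven days before reading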;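 for viability, T/C: percent of DMSO vehicle control viability so 100% = untreated level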
Conditions: spheroids with HUVEC and MSC; for IC50: curve of first compound; for viability, T/C: stronger effect = lower value
Method in brief: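 Complex spheroids of malignant cells with endothelial cells and mesenchymal stem cells; agents alone or combined, from near clinical Cmax (or 10 microM if unknown) down in half-log steps, 0.25% DMSO final.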

[1] = second compound 30 pM, first compound 0.0316 µM
[2] = second compound 30 pM, first compound 0.1 µM
[3] = second compound 30 pM, first compound 0.316 µM
[4] = second compound 30 pM, first compound 1 µM
[5] = second compound 30 pM, first compound 3.16 µM
[6] = second compound 30 pM, first compound 10 µM
[7] = second compound 94.9 pM, first compound 0.0316 µM
[8] = second compound 94.9 pM, first compound 0.1 µM
[9] = second compound 94.9 pM, first compound 0.316 µM
[10] = second compound 94.9 pM, first compound 1 µM
[11] = second compound 94.9 pM, first compound 3.16 µM
[12] = second compound 94.9 pM, first compound 10 µM
[13] = second compound 0.0003 µM, first compound 0.0316 µM
[14] = second compound 0.0003 µM, first compound 0.1 µM
[15] = second compound 0.0003 µM, first compound 0.316 µM
[16] = second compound 0.0003 µM, first compound 1 µM
[17] = second compound 0.0003 µM, first compound 3.16 µM
[18] = second compound 0.0003 µM, first compound 10 µM
[19] = second compound 0.000949 µM, first compound 0.0316 µM
[20] = second compound 0.000949 µM, first compound 0.1 µM
[21] = second compound 0.000949 µM, first compound 0.316 µM
[22] = second compound 0.000949 µM, first compound 1 µM
[23] = second compound 0.000949 µM, first compound 3.16 µM
[24] = second compound 0.000949 µM, first compound 10 µM
[25] = second compound 0.003 µM, first compound 0.0316 µM
[26] = second compound 0.003 µM, first compound 0.1 µM
[27] = second compound 0.003 µM, first compound 0.316 µM
[28] = second compound 0.003 µM, first compound 1 µM
[29] = second compound 0.003 µM, first compound 3.16 µM
[30] = second compound 0.003 µM, first compound 10 µM

CC(C)n1c(=O)n(C)c2cnc3cc(F)c(-c4ccc(OCCCN5CCCCC5)nc4)cc3c21 + COc1cc2c(cc1O)CCNC21CSC2c3c(OC(C)=O)c(C)c4c(c3C(COC1=O)N1C(O)C3Cc5cc(C)c(OC)c(O)c5C(C21)N3C)OCO4
IC50 (second compound 30 pM): > 10000 nM | IC50 (second compound 94.9 pM): 7160 nM | IC50 (second compound 0.0003 µM): < 31.6 nM | IC50 (second compound 0.000949 µM): < 31.6 nM | IC50 (second compound 0.003 µM): < 31.6 nM | viability, T/C [1]: 128% | viability, T/C [2]: 120% | viability, T/C [3]: 109% | viability, T/C [4]: 114% | viability, T/C [5]: 91.9% | viability, T/C [6]: 71.4% | viability, T/C [7]: 75.3% | viability, T/C [8]: 73.6% | viability, T/C [9]: 70% | viability, T/C [10]: 84.1% | viability, T/C [11]: 73.3% | viability, T/C [12]: 40.2% | viability, T/C [13]: 13.2% | viability, T/C [14]: 13.8% | viability, T/C [15]: 18% | viability, T/C [16]: 17.2% | viability, T/C [17]: 13.9% | viability, T/C [18]: 15.2% | viability, T/C [19]: 3.04% | viability, T/C [20]: 3.45% | viability, T/C [21]: 3.44% | viability, T/C [22]: 5.73% | viability, T/C [23]: 4.91% | viability, T/C [24]: 3.99% | viability, T/C [25]: 0.18% | viability, T/C [26]: 0.2% | viability, T/C [27]: 0.22% | viability, T/C [28]: 0.2% | viability, T/C [29]: 0.2% | viability, T/C [30]: 0.31%

CC1COCCN1c1cc(-c2ccnn2C)c2ccnc(-c3ccn[nH]3)c2n1 (stereo not given) + COc1cc2c(cc1O)CCNC21CSC2c3c(OC(C)=O)c(C)c4c(c3C(COC1=O)N1C(O)C3Cc5cc(C)c(OC)c(O)c5C(C21)N3C)OCO4
IC50 (second compound 30 pM): < 31.6 nM | IC50 (second compound 94.9 pM): < 31.6 nM | IC50 (second compound 0.0003 µM): < 31.6 nM | IC50 (second compound 0.000949 µM): < 31.6 nM | IC50 (second compound 0.003 µM): < 31.6 nM | viability, T/C [1]: 14.4% | viability, T/C [2]: 6.1% | viability, T/C [3]: 4.22% | viability, T/C [4]: 3.28% | viability, T/C [5]: 3.45% | viability, T/C [6]: 5.25% | viability, T/C [7]: 8.99% | viability, T/C [8]: 6.52% | viability, T/C [9]: 3.33% | viability, T/C [10]: 2.89% | viability, T/C [11]: 3.13% | viability, T/C [12]: 4.37% | viability, T/C [13]: 5.86% | viability, T/C [14]: 5.4% | viability, T/C [15]: 3.44% | viability, T/C [16]: 2.22% | viability, T/C [17]: 1.93% | viability, T/C [18]: 2.79% | viability, T/C [19]: 2.32% | viability, T/C [20]: 1.87% | viability, T/C [21]: 1.51% | viability, T/C [22]: 0.74% | viability, T/C [23]: 0.11% | viability, T/C [24]: 0.34% | viability, T/C [25]: 0.49% | viability, T/C [26]: 0.59% | viability, T/C [27]: 0.48% | viability, T/C [28]: 0.35% | viability, T/C [29]: 0.32% | viability, T/C [30]: 0.51%

COc1cc(C)[nH]c(=O)c1CN1CCc2c(Cl)cc(C(OC)C3COC3)c(Cl)c2C1=O (stereo not given) + COc1cc2c(cc1O)CCNC21CSC2c3c(OC(C)=O)c(C)c4c(c3C(COC1=O)N1C(O)C3Cc5cc(C)c(OC)c(O)c5C(C21)N3C)OCO4
IC50 (second compound 30 pM): > 10000 nM | IC50 (second compound 94.9 pM): > 10000 nM | IC50 (second compound 0.0003 µM): < 31.6 nM | IC50 (second compound 0.000949 µM): < 31.6 nM | IC50 (second compound 0.003 µM): < 31.6 nM | viability, T/C [1]: 132% | viability, T/C [2]: 117% | viability, T/C [3]: 108% | viability, T/C [4]: 92.5% | viability, T/C [5]: 86% | viability, T/C [6]: 90.1% | viability, T/C [7]: 121% | viability, T/C [8]: 99.9% | viability, T/C [9]: 97.8% | viability, T/C [10]: 89.7% | viability, T/C [11]: 81.4% | viability, T/C [12]: 70.8% | viability, T/C [13]: 20.1% | viability, T/C [14]: 15.3% | viability, T/C [15]: 19.4% | viability, T/C [16]: 23.8% | viability, T/C [17]: 21.3% | viability, T/C [18]: 19.3% | viability, T/C [19]: 3.35% | viability, T/C [20]: 3.82% | viability, T/C [21]: 3.22% | viability, T/C [22]: 4.24% | viability, T/C [23]: 4.87% | viability, T/C [24]: 4.39% | viability, T/C [25]: 0.33% | viability, T/C [26]: 0.35% | viability, T/C [27]: 0.32% | viability, T/C [28]: 0.3% | viability, T/C [29]: 0.32% | viability, T/C [30]: 0.52%

COc1ccc([C@@H](O)c2cc(-c3ncnc4cc(N5CCOCC5)ccc34)c(F)cc2Cl)nn1 + COc1cc2c(cc1O)CCNC21CSC2c3c(OC(C)=O)c(C)c4c(c3C(COC1=O)N1C(O)C3Cc5cc(C)c(OC)c(O)c5C(C21)N3C)OCO4
IC50 (second compound 30 pM): 1670 nM | IC50 (second compound 94.9 pM): 686 nM | IC50 (second compound 0.0003 µM): < 31.6 nM | IC50 (second compound 0.000949 µM): < 31.6 nM | IC50 (second compound 0.003 µM): < 31.6 nM | viability, T/C [1]: 117% | viability, T/C [2]: 114% | viability, T/C [3]: 93.3% | viability, T/C [4]: 67.1% | viability, T/C [5]: 29.7% | viability, T/C [6]: 6.65% | viability, T/C [7]: 101% | viability, T/C [8]: 93.8% | viability, T/C [9]: 75.6% | viability, T/C [10]: 38.6% | viability, T/C [11]: 7.08% | viability, T/C [12]: 1.86% | viability, T/C [13]: 16.7% | viability, T/C [14]: 10.5% | viability, T/C [15]: 7.96% | viability, T/C [16]: 3.36% | viability, T/C [17]: 0.77% | viability, T/C [18]: 0.17% | viability, T/C [19]: 2.36% | viability, T/C [20]: 2.67% | viability, T/C [21]: 0.85% | viability, T/C [22]: 0.08% | viability, T/C [23]: 0.11% | viability, T/C [24]: 0.22% | viability, T/C [25]: 0.22% | viability, T/C [26]: 0.26% | viability, T/C [27]: 0.22% | viability, T/C [28]: 0.24% | viability, T/C [29]: 0.25% | viability, T/C [30]: 0.34%

Cc1cc(C)c(CNC(=O)c2cc(-c3ccc(CN4CCOCC4)cc3)cc3c2cnn3C2CCCC2)c(=O)[nH]1 + COc1cc2c(cc1O)CCNC21CSC2c3c(OC(C)=O)c(C)c4c(c3C(COC1=O)N1C(O)C3Cc5cc(C)c(OC)c(O)c5C(C21)N3C)OCO4
IC50 (second compound 30 pM): > 10000 nM | IC50 (second compound 94.9 pM): 8460 nM | IC50 (second compound 0.0003 µM): < 31.6 nM | IC50 (second compound 0.000949 µM): < 31.6 nM | IC50 (second compound 0.003 µM): < 31.6 nM | viability, T/C [1]: 106% | viability, T/C [2]: 106% | viability, T/C [3]: 108% | viability, T/C [4]: 108% | viability, T/C [5]: 107% | viability, T/C [6]: 76.6% | viability, T/C [7]: 92.4% | viability, T/C [8]: 100% | viability, T/C [9]: 91.3% | viability, T/C [10]: 86% | viability, T/C [11]: 79.4% | viability, T/C [12]: 45.1% | viability, T/C [13]: 15.2% | viability, T/C [14]: 15.1% | viability, T/C [15]: 13.4% | viability, T/C [16]: 11.8% | viability, T/C [17]: 12.4% | viability, T/C [18]: 11.8% | viability, T/C [19]: 2.63% | viability, T/C [20]: 2.57% | viability, T/C [21]: 2.16% | viability, T/C [22]: 2.23% | viability, T/C [23]: 2.69% | viability, T/C [24]: 1.43% | viability, T/C [25]: 0.15% | viability, T/C [26]: 0.17% | viability, T/C [27]: 0.17% | viability, T/C [28]: 0.15% | viability, T/C [29]: 0.17% | viability, T/C [30]: 0.22%

[2H]c1nc(C)nc([2H])c1-c1cc(NC[C@@H](C)c2cccc3c(C(=O)NC)ccnc23)ncn1 + COc1cc2c(cc1O)CCNC21CSC2c3c(OC(C)=O)c(C)c4c(c3C(COC1=O)N1C(O)C3Cc5cc(C)c(OC)c(O)c5C(C21)N3C)OCO4
IC50 (second compound 30 pM): > 10000 nM | IC50 (second compound 94.9 pM): > 10000 nM | IC50 (second compound 0.0003 µM): < 31.6 nM | IC50 (second compound 0.000949 µM): < 31.6 nM | IC50 (second compound 0.003 µM): < 31.6 nM | viability, T/C [1]: 98% | viability, T/C [2]: 93.5% | viability, T/C [3]: 95.2% | viability, T/C [4]: 99.1% | viability, T/C [5]: 94.2% | viability, T/C [6]: 86.2% | viability, T/C [7]: 86.5% | viability, T/C [8]: 89% | viability, T/C [9]: 92.5% | viability, T/C [10]: 88.4% | viability, T/C [11]: 92.1% | viability, T/C [12]: 78.3% | viability, T/C [13]: 16.1% | viability, T/C [14]: 16% | viability, T/C [15]: 17.8% | viability, T/C [16]: 14.6% | viability, T/C [17]: 9.62% | viability, T/C [18]: 12% | viability, T/C [19]: 2.64% | viability, T/C [20]: 1.58% | viability, T/C [21]: 3.44% | viability, T/C [22]: 3.49% | viability, T/C [23]: 2.59% | viability, T/C [24]: 1.53% | viability, T/C [25]: 0.15% | viability, T/C [26]: 0.14% | viability, T/C [27]: 0.14% | viability, T/C [28]: 0.14% | viability, T/C [29]: 1.6% | viability, T/C [30]: 0.24%
